Results: patent publication US10618916B2, “Heterocyclic compounds as immunomodulators” (Incyte Corporation, priority 2018, dated 2020)

Tests used:
[1] = target: PD-1/PD-L1 protein/protein interaction (recombinant human PD-L1 and human PD-1) (Homo sapiens (Human), UniProt Q9NZQ7); test: Homogeneous Time-Resolved Fluorescence (HTRF) PD-1/PD-L1 binding assay
Protocol: Example A. Homogeneous Time-Resolved Fluorescence (HTRF) PD-1/PD-L1 Binding Assay
The assays were conducted in a standard black 384-well polystyrene plate with a final volume of 20 μL. Inhibitors were first serially diluted in DMSO and then added to the plate wells before the addition of other reaction components. The final concentration of DMSO in the assay was 1%. The assays were carried out at 25° C. in the PBS buffer (pH 7.4) with 0.05% Tween-20 and 0.1% BSA. Recombinant human PD-L1 protein (19-238) with a His-tag at the C-terminus was purchased from AcroBiosystems (PD1-H5229). Recombinant human PD-1 protein (25-167) with Fc tag at the C-terminus was also purchased from AcroBiosystems (PD1-H5257). PD-L1 and PD-1 proteins were diluted in the assay buffer and 10 μL was added to the plate well. Plates were centrifuged and proteins were preincubated with inhibitors for 40 minutes. The incubation was followed by the addition of 10 μL of HTRF detection buffer supplemented with Europium cryptate-labeled anti-human IgG (PerkinElmer-AD0212) specific for Fc and anti-His antibody conjugated to SureLight®-Allophycocyanin (APC, PerkinElmer-AD0059H). After centrifugation, the plate was incubated at 25° C. for 60 min. before reading on a PHERAstar FS plate reader (665 nm/620 nm ratio). Final concentrations in the assay were—3 nM PD1, 10 nM PD-L1, 1 nM europium anti-human IgG and 20 nM anti-His-Allophycocyanin. IC50 determination was performed by fitting the curve of percent control activity versus the log of the inhibitor concentration using the GraphPad Prism 5.0 software.

[2] = target: PD-L1 (Homo sapiens (Human), UniProt Q9NZQ7); test: PD-L1 whole blood internalization assay; type: cell-based; conditions: 24 HR, PD-L1 expression on CD14+ cells, human interferon γ
Chain of PD-L1 (Q9NZQ7 19-290): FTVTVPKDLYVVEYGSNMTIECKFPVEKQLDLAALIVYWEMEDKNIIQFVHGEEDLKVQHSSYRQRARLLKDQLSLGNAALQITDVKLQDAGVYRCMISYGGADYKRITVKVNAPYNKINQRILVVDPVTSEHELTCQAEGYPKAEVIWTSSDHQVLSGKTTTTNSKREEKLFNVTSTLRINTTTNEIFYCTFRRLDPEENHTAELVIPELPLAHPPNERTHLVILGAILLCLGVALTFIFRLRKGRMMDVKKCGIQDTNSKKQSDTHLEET
Protocol: Example D. PD-L1 Whole Blood Internalization Assay
To determine PD-L1 internalization in human whole blood, normal human blood (Biological Specialty Corp, Colmar. Pa.) was incubated in the presence or absence of a concentration range of test compounds and 1 ng/ml human interferon γ (R&D Systems Inc. Minn. […] Blood was then stained with PD-L1 (MIH1, eBioscience; or BD Biosciences San Jose, Calif.), CD14 (Life Technologies, Carlsbad, Calif.) for 30 minutes in the dark at room temperature. Whole Blood/red cells were lysed/fixed (lysis buffer BD Biosciences) for 5 minutes at 37° C. in the dark and then centrifuged at 1600 RPM for 5 minutes. Cells were resuspended in Stain Buffer (BD Bioscience, San Jose, Calif.) and transferred into 96 well round bottom plates (Corning). Cells were gated on CD14+(BD Biosciences) and PD-L1 expression determined by mean fluorescence intensity (MFI) (BD LSRFortessa™ X-20). IC50 determination was performed by fitting the curve of compound percent inhibition versus the log of the compound concentration using the GraphPad Prism 7.0 software.

[3] = tested on: PD-L1 aAPC/CHO-K1 cells and Jurkat-PD-1-NFAT effector cells; test: Nuclear factor of activated T-cells (NFAT) assay; type: cell-based; conditions: Cricetulus griseus, CHO-K1
Protocol: Example C. Nuclear Factor of Activated T-Cells (NFAT) Assay
PD-L1 aAPC/CHO-K1 cells (Promega) were maintained in F-12 medium with addition of 10% FBS, 200 μg/ml Hygromycin B, 250 μg/ml Geneticin (G418). Jurkat-PD-1-NFAT effector cells (Promega) were cultured in RPMI 1640 medium supplemented with 10% FBS, 100 μg/ml Hygromycin B, 500 μg/ml G418. The culture media of PD-L1 aAPC/CHO-K1 cells were first replaced with assay medium (RPMI1640 medium with 1% FBS). The PD-L1 aAPC/CHO-K1 cells were then added in a white 384-well white clear bottom assay plate (CELLCOAT® Tissue Culture Plates, Greiner Bio-One) at 8000 per well in 10 μL assay medium. Test compounds were prepared by serial dilution in DMSO and 0.8 μL test compounds in DMSO were first transferred to the 384 REMP plate well (Thermofisher) by PlateMate Plus (Thermofisher) followed with addition of 50 μL plating medium. 5 μL compounds in the assay medium were transferred to the cells with 0.4% DMSO in the final assay at 2 μM. After removing the culture media, 10,000 Jurkat-PD-1-NFAT effector cells in 5 μL assay medium was dispensed into each well. The assay plate was incubated at 37° C., 5% CO2 for 24 hours. After the assay plate was equilibrated to room temp for 15 minutes, 20 µL/well of Bio-Glo™ reagent (Promega) were added. After 8 minutes incubation at room temperature, luminescence was read at with Pherastar microplate reader (BMG Labtech). The fold of induction (FOI) was calculated based on the ratio of luminescence normalized to the DMSO wells within each assay plate. The maximum percentage of induction was reported based on the ratio between the highest FOI of each compound and the maximum FOI of control compound within each assay plate. Wells with DMSO were served as the negative controls and wells containing control compound with the highest FOI were used as positive controls. EC50 determination was performed by fitting the curve of percent control activity versus the log of the compound concentration using the GraphPad Prism 6.0 software.

[4] = tested on: U2OS/PD-L1 cells and Jurkat-PD-1-SHP cells; test: Src homology region 2 domain-containing phosphatase (SHP) assay; type: cell-based; conditions: Homo sapiens, U2OS
Protocol: Example B. Src Homology Region 2 Domain-Containing Phosphatase (SHP) Assay
U2OS/PD-L1 cells (DiscoveRx Corporation) were maintained in McCoy's 5A medium with addition of 10% FBS, 0.25 μg/ml Puromycin. After removing the culture media, the cell medium was replaced with assay medium (RPMI1640 medium with 1% FBS). The U2OS/PD-L1 cells were then added in 384-well black clear bottom assay plate (CELLCOAT® Tissue Culture Plates, Greiner Bio-One) at 5000 cells per well in 20 μL assay medium. Test compounds were prepared by serial dilution in DMSO and 125 nL compound were first transferred to the 384 REMP plate well (Thermofisher) by ECHO liquid handler (Labcyte) followed with addition of 27.5 μL assay medium. 5 μL/well compounds in the assay medium were transferred to the cell plate with 0.05% DMSO in the final assay at […]. Jurkat-PD-1-SHP cells (DiscoveRx Corporation) were cultured in RPMI1640 medium supplemented with 10% FBS, 250 μg/ml Hygromycin B, 500 μg/ml G418. After the replacement of culture media with assay medium, 5,000 Jurkat-PD-1-SHP cells in 20 μL were dispensed into each well. The assay plate was incubated at 37° C., 5% CO2 for 2 hours before 2.5 μL PathHunter reagent 1 (DiscoveRx Corporation) were added to each well. The assay plate was shaken for 1 min at 350 rpm in the dark followed with addition of 10 μL PathHunter reagent 2 (DiscoveRx Corporation). Chemiluminescent signal was recorded with TopCount reader (Perkin Elmer) after incubation at room temperature for 1 hour. Wells with DMSO were served as the positive controls and wells containing no cells were used as negative controls. IC50 determination was performed by fitting the curve of percentage of control activity versus the log of the compound concentration using the GraphPad Prism 6.0 software.

Chain of PD-1/PD-L1 protein/protein interaction (recombinant human PD-L1 and human PD-1) (Q9NZQ7 19-238): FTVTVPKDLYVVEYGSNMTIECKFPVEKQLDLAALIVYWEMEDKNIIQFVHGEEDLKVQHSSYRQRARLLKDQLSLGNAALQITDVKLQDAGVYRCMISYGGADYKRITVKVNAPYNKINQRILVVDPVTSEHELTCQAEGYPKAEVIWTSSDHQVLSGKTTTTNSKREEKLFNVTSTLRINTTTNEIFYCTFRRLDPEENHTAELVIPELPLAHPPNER

| SMILES | IC50 [1] | IC50 [2] | IC50 [4] | EC50 [3] |
| --- | --- | --- | --- | --- |
| Cn1c(C(=O)Nc2cccc(-c3cccc(NC(=O)c4nc5c(n4C)CCNC5)c3C#N)c2Cl)nc2c1CCN(CCC13CCC(C(=O)O)(CC1)C3)C2 [Example 46, 4-(2-(2-((2-chloro-2′-cyano-3′-(1-methyl-4,5,6,7-tetrahydro-1H-imidazo[4,5-c]pyridine-2-carboxamido)-[1,1′-biphenyl]-3-yl)carbamoyl)-1-methyl-1,4,6,7-tetrahydro-5H-imidazo[4,5-c]pyridin-5-yl)ethyl)bicyclo[2.2.1]heptane-1-carboxylic Acid] | ≤ 5 nM |  | ≤ 10 nM | 10 to 100 nM |
| Cc1c(NC(=O)c2nc3c(n2C)CCNC3)cccc1-c1cccc(NC(=O)c2nc3c(n2C)CCN(CCC24CCC(C(=O)O)(CC2)C4)C3)c1C [Example 53, 4-(2-(2-((2,2′-dimethyl-3′-(1-methyl-4,5,6,7-tetrahydro-1H-imidazo[4,5-c]pyridine-2-carboxamido)-[1,1′-biphenyl]-3-yl)carbamoyl)-1-methyl-1,4,6,7-tetrahydro-5H-imidazo[4,5-c]pyridin-5-yl)ethyl)bicyclo[2.2.1]heptane-1-carboxylic Acid] | ≤ 5 nM |  | ≤ 10 nM | 10 to 100 nM |
| Cc1c(NC(=O)c2nc3c(n2C)CCN(CCC24CCC(C(=O)O)(CC2)C4)C3)cccc1-c1cccc(NC(=O)c2nc3c(n2C)CCN(CC24CCC(C(=O)O)(CC2)C4)C3)c1C [Example 55, 4-((2-((3′-(5-(2-(4-carboxybicyclo[2.2.1]heptan-1-yl)ethyl)-1-methyl-4,5,6,7-tetrahydro-1H-imidazo[4,5-c]pyridine-2-carboxamido)-2,2′-dimethyl-[1,1′-biphenyl]-3-yl)carbamoyl)-1-methyl-1,4,6,7-tetrahydro-5H-imidazo[4,5-c]pyridin-5-yl)methyl)bicyclo[2.2.1]heptane-1-carboxylic acid] | ≤ 5 nM |  | ≤ 10 nM | 10 to 100 nM |
| Cc1c(NC(=O)c2nc3c(n2C)CCN(CCO)C3)cccc1-c1cccc(NC(=O)c2nc3c(n2C)CCN(CCC24CCC(C(=O)O)(CC2)C4)C3)c1C [Example 59, 4-(2-(2-((3′-(5-(2-hydroxyethyl)-1-methyl-4,5,6,7-tetrahydro-1H-imidazo[4,5-c]pyridine-2-carboxamido)-2,2′-dimethyl-[1,1′-biphenyl]-3-yl)carbamoyl)-1-methyl-1,4,6,7-tetrahydro-5H-imidazo[4,5-c]pyridin-5-yl)ethyl)bicyclo[2.2.1]heptane-1-carboxylic acid] | ≤ 5 nM |  | ≤ 10 nM | 100 to 500 nM |

Second part, led by results:

| IC50 [1] | IC50 [2] | IC50 [4] | SMILES | EC50 [3] |
| --- | --- | --- | --- | --- |
| ≤ 5 nM | 10 to 100 nM |  | Cn1c(C(=O)Nc2cccc(-c3cccc(NC(=O)c4nc5c(n4C)CCN(C4CCN(C(N)=O)CC4)C5)c3Cl)c2Cl)nc2c1CCN(CCC13CCC(C(=O)O)(CC1)C3)C2 [Example 7, 4-(2-(2-((3′-(5-(1-carbamoylpiperidin-4-yl)-1-methyl-4,5,6,7-tetrahydro-1H-imidazo[4,5-c]pyridine-2-carboxamido)-2,2′-dichloro-[1,1′-biphenyl]-3-yl)carbamoyl)-1-methyl-1,4,6,7-tetrahydro-5H-imidazo[4,5-c]pyridin-5-yl)ethyl)bicyclo[2.2.1]heptane-1-carboxylic acid] | 10 to 100 nM |
| ≤ 5 nM |  | ≤ 10 nM | Cc1c(NC(=O)c2nc3c(n2C)CCN(CCC24CCC(C(=O)O)(CC2)C4)C3)cccc1-c1cccc(NC(=O)c2nc3c(n2C)CCN(C)C3)c1Cl [Example 39, 4-(2-(2-((2′-chloro-3′-(1,5-dimethyl-4,5,6,7-tetrahydro-1H-imidazo[4,5-c]pyridine-2-carboxamido)-2-methyl-[1,1′-biphenyl]-3-yl)carbamoyl)-1-methyl-1,4,6,7-tetrahydro-5H-imidazo[4,5-c]pyridin-5-yl)ethyl)bicyclo[2.2.1]heptane-1-carboxylic acid] | 10 to 100 nM |
| ≤ 5 nM |  | ≤ 10 nM | CN1CCc2c(nc(C(=O)Nc3cccc(-c4cccc(NC(=O)c5nc6c(n5C)CCN(CCC57CCC(C(=O)O)(CC5)C7)C6)c4Cl)c3C#N)n2C)C1 [Example 48, 4-(2-(2-((2-chloro-2′-cyano-3′-(1,5-dimethyl-4,5,6,7-tetrahydro-1H-imidazo[4,5-c]pyridine-2-carboxamido)-[1,1′-biphenyl]-3-yl)carbamoyl)-1-methyl-1,4,6,7-tetrahydro-5H-imidazo[4,5-c]pyridin-5-yl)ethyl)bicyclo[2.2.1]heptane-1-carboxylic acid] | 10 to 100 nM |
| ≤ 5 nM |  | 10 to 100 nM | Cn1c(C(=O)Nc2cccc(-c3cccc(NC(=O)c4nc5c(n4C)CCN(CC46CCC(C(=O)O)(CC4)C6)C5)c3C#N)c2Cl)nc2c1CCN(CCC13CCC(C(=O)O)(CC1)C3)C2 [Example 52, 4-((2-((3′-(5-(2-(4-carboxybicyclo[2.2.1]heptan-1-yl)ethyl)-1-methyl-4,5,6,7-tetrahydro-1H-imidazo[4,5-c]pyridine-2-carboxamido)-2′-chloro-2-cyano-[1,1′-biphenyl]-3-yl)carbamoyl)-1-methyl-1,4,6,7-tetrahydro-5H-imidazo[4,5-c]pyridin-5-yl)methyl)bicyclo[2.2.1]heptane-1-carboxylic acid] | 100 to 500 nM |
